Assay results from patent US20090137572A1, “2-substituted-4-heteroaryl-pyrimidines useful for the treatment of proliferative disorders” (priority 2004, published 2009).
Read-outs that look alike come from different tables or passages of the source.

Tests used:
Type in all cases: biochemical
CDK1-cyclin B = CDK1-cyclin B (Homo sapiens, UniProt P06493); test: Kinase assay (radioactive phosphate incorporation), CDK1-cyclin B; details: read-out: Kinase Inhibition pIC50 CDK1-cyclin B (converted)
Summary of the method: (§1)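 Each recombinant kinase was combined with its polypeptide substrate in pH 7.4 assay buffer. Mg/ATP mix carrying [γ-32P]-ATP (100 μM ATP) was then added and the plate incubated at 30° C. After stopping on ice, the reaction was filtered, washed with 75 mM orthophosphoric acid, dried and counted.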

CDK2-cyclin A = CDK2-cyclin A (Homo sapiens, UniProt P24941); test: Kinase assay (radioactive phosphate incorporation), CDK2-cyclin A; details: read-out: Kinase Inhibition pIC50 CDK2-cyclin A (converted)
Summary of the method: as §1

CDK9/cyclin T1 = CDK9/cyclin T1 (Homo sapiens, UniProt P50750); test: CDK 9 assay (CTD peptide substrate); details: read-out: Kinase Inhibition pIC50 CDK9-cyclin T1 (converted)
CDK9/cyclin T1, sequence (P50750 whole entry): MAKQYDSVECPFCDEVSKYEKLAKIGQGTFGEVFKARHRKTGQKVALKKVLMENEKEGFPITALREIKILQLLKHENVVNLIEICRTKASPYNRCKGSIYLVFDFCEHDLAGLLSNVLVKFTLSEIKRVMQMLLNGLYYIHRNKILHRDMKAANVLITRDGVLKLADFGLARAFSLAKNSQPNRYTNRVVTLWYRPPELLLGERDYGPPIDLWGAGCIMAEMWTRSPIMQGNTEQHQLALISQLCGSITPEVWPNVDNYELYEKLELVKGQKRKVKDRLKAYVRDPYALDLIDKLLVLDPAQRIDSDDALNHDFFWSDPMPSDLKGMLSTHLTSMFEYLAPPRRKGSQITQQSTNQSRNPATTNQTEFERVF
CDK9/cyclin T1, sequence (O60563 whole entry partner): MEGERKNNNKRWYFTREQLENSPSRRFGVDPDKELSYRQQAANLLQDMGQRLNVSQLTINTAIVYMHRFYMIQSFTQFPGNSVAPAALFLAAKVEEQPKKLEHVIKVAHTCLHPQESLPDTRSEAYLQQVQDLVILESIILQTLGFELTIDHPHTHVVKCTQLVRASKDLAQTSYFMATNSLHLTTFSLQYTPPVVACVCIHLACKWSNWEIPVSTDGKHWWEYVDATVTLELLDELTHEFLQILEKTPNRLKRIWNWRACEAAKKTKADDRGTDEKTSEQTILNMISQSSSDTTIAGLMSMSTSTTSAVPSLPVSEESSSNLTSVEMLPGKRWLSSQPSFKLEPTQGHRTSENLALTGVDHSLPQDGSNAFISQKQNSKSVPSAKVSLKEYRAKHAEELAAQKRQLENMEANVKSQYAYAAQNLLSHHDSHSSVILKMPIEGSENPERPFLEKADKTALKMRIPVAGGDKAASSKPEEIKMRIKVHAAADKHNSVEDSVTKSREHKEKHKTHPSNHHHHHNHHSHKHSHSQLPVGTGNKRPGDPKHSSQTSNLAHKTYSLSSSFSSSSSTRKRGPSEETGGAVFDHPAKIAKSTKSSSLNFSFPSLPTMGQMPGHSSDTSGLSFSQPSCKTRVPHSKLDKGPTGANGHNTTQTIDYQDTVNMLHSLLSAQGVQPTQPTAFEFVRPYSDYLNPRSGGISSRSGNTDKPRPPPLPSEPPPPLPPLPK
Summary of the method: (§2)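 Inhibition measured against recombinant human kinase/cyclin complex phosphorylating biotin-(Tyr-Ser-Pro-Thr-Ser-Pro-Ser)4 peptide, 100 μM radiolabelled ATP, 45 min at 30° C. Product quantified by filter capture and scintillation counting.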

CDK7/cyclin H = CDK7/cyclin H (Homo sapiens, UniProt P50613); test: CDK 7 assay (CTD peptide substrate); details: read-out: Kinase Inhibition pIC50 CDK7-cyclin H (converted)
CDK7/cyclin H, sequence (P50613 whole entry): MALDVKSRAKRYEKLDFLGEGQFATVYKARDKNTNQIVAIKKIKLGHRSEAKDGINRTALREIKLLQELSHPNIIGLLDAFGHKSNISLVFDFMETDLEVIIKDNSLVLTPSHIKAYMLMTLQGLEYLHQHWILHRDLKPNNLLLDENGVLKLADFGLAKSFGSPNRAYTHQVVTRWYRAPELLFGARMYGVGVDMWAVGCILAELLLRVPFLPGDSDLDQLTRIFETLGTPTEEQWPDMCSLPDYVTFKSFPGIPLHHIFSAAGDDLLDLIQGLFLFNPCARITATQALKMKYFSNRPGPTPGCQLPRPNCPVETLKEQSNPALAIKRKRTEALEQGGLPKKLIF
CDK7/cyclin H, sequence (P51946 whole entry partner): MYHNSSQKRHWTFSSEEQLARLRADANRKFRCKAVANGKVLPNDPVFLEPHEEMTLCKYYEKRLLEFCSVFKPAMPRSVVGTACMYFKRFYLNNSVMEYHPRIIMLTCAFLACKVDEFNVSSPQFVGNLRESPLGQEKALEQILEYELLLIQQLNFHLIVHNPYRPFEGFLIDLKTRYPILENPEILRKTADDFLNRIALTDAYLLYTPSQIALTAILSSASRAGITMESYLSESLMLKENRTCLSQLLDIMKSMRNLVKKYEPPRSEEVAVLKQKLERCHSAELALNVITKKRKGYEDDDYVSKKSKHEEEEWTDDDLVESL
Summary of the method: as §2

[1] = target: T1, Flt3 (FMS-like tyrosine kinase-3) (Homo sapiens, UniProt P36888); test: Kinase assay (radioactive phosphate incorporation), Flt3; details: pIC50 is -log(IC50, M), read-out: Kinase Inhibition pIC50 Flt3 (converted)
T1 sequence (P36888 27-993): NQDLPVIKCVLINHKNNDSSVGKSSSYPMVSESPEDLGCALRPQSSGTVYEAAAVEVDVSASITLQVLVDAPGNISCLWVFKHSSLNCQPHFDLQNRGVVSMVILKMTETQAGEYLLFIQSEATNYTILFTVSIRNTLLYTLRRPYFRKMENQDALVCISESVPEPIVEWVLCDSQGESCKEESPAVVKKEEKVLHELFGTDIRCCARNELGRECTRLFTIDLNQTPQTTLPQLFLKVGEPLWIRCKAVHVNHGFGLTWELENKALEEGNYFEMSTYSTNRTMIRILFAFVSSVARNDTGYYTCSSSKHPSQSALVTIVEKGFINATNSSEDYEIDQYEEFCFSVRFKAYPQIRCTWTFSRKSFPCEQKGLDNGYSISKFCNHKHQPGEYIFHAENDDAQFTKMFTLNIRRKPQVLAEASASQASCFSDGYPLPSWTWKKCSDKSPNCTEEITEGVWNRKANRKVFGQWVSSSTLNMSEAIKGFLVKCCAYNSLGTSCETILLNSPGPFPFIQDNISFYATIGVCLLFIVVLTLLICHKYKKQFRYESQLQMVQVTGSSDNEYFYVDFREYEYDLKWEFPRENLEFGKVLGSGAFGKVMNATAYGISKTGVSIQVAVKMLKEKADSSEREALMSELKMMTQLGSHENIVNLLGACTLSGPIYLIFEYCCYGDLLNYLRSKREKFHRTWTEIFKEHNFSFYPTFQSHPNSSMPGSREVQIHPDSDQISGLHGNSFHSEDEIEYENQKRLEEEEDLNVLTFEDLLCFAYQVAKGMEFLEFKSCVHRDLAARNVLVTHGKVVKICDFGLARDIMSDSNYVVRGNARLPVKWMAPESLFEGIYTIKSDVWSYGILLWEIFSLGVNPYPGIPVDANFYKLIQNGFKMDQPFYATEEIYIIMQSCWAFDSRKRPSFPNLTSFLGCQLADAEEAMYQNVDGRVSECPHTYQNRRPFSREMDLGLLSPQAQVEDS
Summary of the method: as §1

[2] = target: T2, protein kinases (panel of Table 4) (Homo sapiens, UniProt P35968); test: Kinase selectivity profile, kinase inhibition IC50 (Table 4), ATP 100 μM; details: kinase VEGFR2
T2 construct: other: kinase VEGFR2; ATP 100 μM
T2 sequence (P35968 whole entry): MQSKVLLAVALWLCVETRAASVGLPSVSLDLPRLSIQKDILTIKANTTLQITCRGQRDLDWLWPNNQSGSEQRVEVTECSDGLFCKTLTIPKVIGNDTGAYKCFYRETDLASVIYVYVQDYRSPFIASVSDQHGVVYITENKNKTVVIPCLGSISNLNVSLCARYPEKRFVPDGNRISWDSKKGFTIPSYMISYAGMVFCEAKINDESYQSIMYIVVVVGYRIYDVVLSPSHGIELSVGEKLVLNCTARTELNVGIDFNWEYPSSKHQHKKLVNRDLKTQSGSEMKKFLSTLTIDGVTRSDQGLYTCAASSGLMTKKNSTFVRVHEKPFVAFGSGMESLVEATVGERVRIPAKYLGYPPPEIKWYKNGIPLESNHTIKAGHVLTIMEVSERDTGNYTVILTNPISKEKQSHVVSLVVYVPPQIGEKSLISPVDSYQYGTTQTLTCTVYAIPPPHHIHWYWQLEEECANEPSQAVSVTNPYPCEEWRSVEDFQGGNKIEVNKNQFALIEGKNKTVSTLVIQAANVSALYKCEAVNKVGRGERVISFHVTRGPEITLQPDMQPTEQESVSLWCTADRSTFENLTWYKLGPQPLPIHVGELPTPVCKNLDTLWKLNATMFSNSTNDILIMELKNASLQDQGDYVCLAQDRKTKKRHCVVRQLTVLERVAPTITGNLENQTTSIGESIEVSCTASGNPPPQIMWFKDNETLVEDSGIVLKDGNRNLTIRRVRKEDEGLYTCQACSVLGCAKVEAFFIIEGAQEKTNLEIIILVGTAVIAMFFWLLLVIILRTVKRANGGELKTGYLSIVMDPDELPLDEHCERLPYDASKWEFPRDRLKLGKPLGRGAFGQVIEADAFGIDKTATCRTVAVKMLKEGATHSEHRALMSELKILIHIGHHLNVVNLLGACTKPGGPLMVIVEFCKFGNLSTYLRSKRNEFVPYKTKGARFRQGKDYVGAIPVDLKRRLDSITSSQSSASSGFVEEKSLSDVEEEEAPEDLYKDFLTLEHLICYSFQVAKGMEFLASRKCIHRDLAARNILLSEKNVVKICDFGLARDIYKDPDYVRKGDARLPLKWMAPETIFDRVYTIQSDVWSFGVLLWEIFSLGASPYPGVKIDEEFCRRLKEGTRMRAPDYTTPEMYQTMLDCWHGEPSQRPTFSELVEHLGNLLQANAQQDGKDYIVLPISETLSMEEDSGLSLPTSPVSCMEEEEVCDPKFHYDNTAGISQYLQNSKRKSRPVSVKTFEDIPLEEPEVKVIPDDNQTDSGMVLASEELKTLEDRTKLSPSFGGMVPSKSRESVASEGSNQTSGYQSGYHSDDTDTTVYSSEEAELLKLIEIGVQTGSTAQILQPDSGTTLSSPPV
Description: (§3) For the assays shown in Table 3, the kinases were assayed at the following ATP concentrations: SAPK4, PKBΔph, GSK3b, SAPK3, CK2, MKK1, PIM2, IKKB, ERK8, and PRK2 at 5 μM; JNK, PRAK, ROCK-II, SAPK2b, CDK2, CHK1, MSK1, CSK, P70S6K, PKA, CK1, MAPKAP-K2, SGK, PKCa, PDK1, NEK 7, and MAPKAP-K3 at 20 μM; SAPK2a, LCK, AMPK, MAPK2, DYRK1a, MAPKAP-K1a, NEK-6, NEK2a, PBK, CAMK-1, SRPK-1, JNK3, MNK2, RSK2, MNK1, PKBB, and SmMLCK at 50 μM. For the assays in Table 4 the ATP concentration was 100 μM throughout.

[3] = target: T3, protein kinases (panel of Table 4) (Homo sapiens, UniProt P24941); test: as above
T3 construct: other: kinase CDK2A; ATP 100 μM; other: kinase CDK2E
Description: as §3

GSK3b = GSK3b (Homo sapiens, UniProt P49841); test: Kinase assay (radioactive phosphate incorporation), GSK-3b; details: read-out: Kinase Inhibition pIC50 GSK-3b (converted)
GSK3b, sequence (P49841 whole entry, species assumed): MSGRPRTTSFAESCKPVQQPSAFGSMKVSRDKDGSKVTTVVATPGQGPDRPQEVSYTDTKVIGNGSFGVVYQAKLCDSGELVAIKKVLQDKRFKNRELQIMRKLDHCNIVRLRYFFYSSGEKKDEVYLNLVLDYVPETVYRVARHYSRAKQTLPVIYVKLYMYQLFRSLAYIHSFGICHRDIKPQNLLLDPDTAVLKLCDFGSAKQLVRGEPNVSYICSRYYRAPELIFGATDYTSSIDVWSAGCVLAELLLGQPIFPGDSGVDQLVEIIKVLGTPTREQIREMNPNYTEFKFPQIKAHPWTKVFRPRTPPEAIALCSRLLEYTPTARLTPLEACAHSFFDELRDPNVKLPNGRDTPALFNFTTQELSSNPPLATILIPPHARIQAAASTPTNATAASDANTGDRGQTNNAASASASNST
Summary of the method: as §1

[4] = kinase CDK2A, read-out: Kinase inhibition IC50, CDK2A
[5] = kinase CDK2E, read-out: Kinase inhibition IC50, CDK2E

CDK1-cyclin B, sequence (P06493 whole entry): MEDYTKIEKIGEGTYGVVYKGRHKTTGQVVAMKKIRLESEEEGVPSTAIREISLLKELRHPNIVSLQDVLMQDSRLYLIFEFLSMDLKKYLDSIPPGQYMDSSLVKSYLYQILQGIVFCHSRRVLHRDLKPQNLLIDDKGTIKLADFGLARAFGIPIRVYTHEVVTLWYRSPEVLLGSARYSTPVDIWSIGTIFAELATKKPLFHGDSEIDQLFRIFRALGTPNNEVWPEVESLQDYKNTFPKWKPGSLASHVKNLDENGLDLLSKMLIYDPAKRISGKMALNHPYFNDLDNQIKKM
CDK1-cyclin B, sequence (P14635 whole entry partner): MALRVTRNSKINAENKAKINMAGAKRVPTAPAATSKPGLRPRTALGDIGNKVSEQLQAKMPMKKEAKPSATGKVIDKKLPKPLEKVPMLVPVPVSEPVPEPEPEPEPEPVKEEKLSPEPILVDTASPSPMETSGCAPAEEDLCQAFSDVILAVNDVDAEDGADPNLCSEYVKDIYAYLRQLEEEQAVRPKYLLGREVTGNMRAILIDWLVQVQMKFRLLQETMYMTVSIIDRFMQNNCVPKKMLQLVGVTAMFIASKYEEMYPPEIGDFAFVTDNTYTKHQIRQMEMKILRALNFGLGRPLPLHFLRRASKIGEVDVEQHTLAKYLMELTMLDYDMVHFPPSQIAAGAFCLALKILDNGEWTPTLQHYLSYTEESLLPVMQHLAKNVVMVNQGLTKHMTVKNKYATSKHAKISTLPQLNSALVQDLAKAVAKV

SMILES | IC50 (CDK1-cyclin B) | IC50 (CDK2-cyclin A) | IC50 (CDK9/cyclin T1) | IC50 (CDK7/cyclin H) | IC50 [1] | IC50 [2] | IC50 [3, 4] | IC50 [3, 5] | IC50 (GSK3b)
CCNc1nc(C)c(-c2ccnc(Nc3ccc(N4CCNCC4)cc3)n2)s1 [Compound 59, [4-(2-Ethylamino-4-methyl-thiazol-5-yl)-pyrimidin-2-yl]-(4-piperazin-1-yl-phenyl)-amine] | 1000 nM | 501 nM | 100 nM | 126 nM | 15.8 nM | 46 nM | 630 nM | 150 nM | 
Cc1ccc(Nc2nccc(-c3sc(N)nc3C)n2)cc1S(=O)(=O)N1CCOCC1 [Compound 38, [4-(2-Amino-4-methyl-thiazol-5-yl)-pyrimidin-2-yl]-[4-methyl-3-(morpholine-4-sulfonyl)-phenyl]-amine] |  |  | 25.1 nM | 631 nM | 200 nM |  | > 10000 nM | > 10000 nM | 2000 nM
Cc1nc(CS(=O)(=O)c2cccs2)sc1-c1ccnc(Nc2ccc(N3CCOCC3)cc2)n1 [Compound 138, {4-[4-Methyl-2-(thiophene-2-sulfonylmethyl)-thiazol-5-yl]-pyrimidin-2-yl}-(4-morpholin-4-yl-phenyl)-amine] |  |  |  | 3160 nM |  |  |  |  | 
CNc1nc(C)c(-c2ccnc(Nc3cccc(S(C)(=O)=O)c3)n2)s1 [Compound 27, (3-Methanesulfonyl-phenyl)-[4-(4-methyl-2-methylamino-thiazol-5-yl)-pyrimidin-2-yl]-amine] | 251 nM | 6.31 nM | 1 nM | 200 nM | 63.1 nM | 44 nM | 7 nM | 3 nM | 100 nM

More lines, now with the values ahead:

IC50 (CDK1-cyclin B) | IC50 (CDK2-cyclin A) | IC50 (CDK9/cyclin T1) | IC50 (CDK7/cyclin H) | IC50 [1] | IC50 [2] | IC50 [3, 4] | IC50 [3, 5] | IC50 (GSK3b) | SMILES
3160 nM | 2000 nM | 31.6 nM | 631 nM | 200 nM | 240 nM | 2100 nM | 270 nM | 501 nM | COCCNS(=O)(=O)c1cccc(Nc2nccc(-c3sc(N)nc3C)n2)c1 [Compound 55, 3-[4-(2-Amino-4-methyl-thiazol-5-yl)-pyrimidin-2-ylamino]-N-(2-methoxy-ethyl)-benzenesulfonamide]
200 nM |  | 2.51 nM | 50.1 nM | 31.6 nM | 36 nM |  |  | 158 nM | CNc1nc(C)c(-c2ccnc(Nc3cccc(S(N)(=O)=O)c3)n2)s1 [Compound 19, 3-[4-(4-Methyl-2-methylamino-thiazol-5-yl)-pyrimidin-2-ylamino]-benzenesulfonamide]
 |  |  | 3980 nM | 158 nM | 390 nM | > 10000 nM | 3000 nM | 1260 nM | CNc1nc(C)c(-c2ccnc(Nc3ccc(C)c(S(=O)(=O)N4CCOCC4)c3)n2)s1 [Compound 37, [4-(4-Methyl-2-methylamino-thiazol-5-yl)-pyrimidin-2-yl]-[4-methyl-3-(morpholine-4-sulfonyl)-phenyl]-amine]
